`NS(=O)(=O)c1cccc(C#Cc2cnn3c(C4CC4)cc(-c4ccc(C(F)(F)F)cc4)nc23)c1` [Example 84, 3-[7-Cyclopropyl-5-(4-trifluoromethyl-phenyl)-pyrazolo[1,5-a]pyrimidin-3-ylethynyl]-benzenesulfonamide] gave a melting point of 262 to 264 °C.
`NC(=O)c1cncc(C#Cc2cnn3c(C(F)(F)F)cc(-c4ccc(C(F)(F)F)cc4)nc23)c1` [Example 15, 5-[7-Trifluoromethyl-5-(4-trifluoromethyl-phenyl)-pyrazolo[1,5-a]pyrimidin-3-ylethynyl]-nicotinamide] had a melting point of 285 to 287 °C.
Take `O=S(=O)(NCCO)c1ccc(C#Cc2cnn3c(C(F)(F)F)cc(-c4ccc(C(F)(F)F)cc4)nc23)cc1` [Example 125, N-(2-Hydroxy-ethyl)-4-[7-trifluoromethyl-5-(4-trifluoromethyl-phenyl)-pyrazolo[1,5-a]pyrimidin-3-ylethynyl]-benzenesulfonamide]: the melting point is 206 to 208 °C.
Regarding `O=S(=O)(NCc1cccnc1)c1ccc(C#Cc2cnn3c(C(F)(F)F)cc(-c4ccc(C(F)(F)F)cc4)nc23)s1` [Example 273, 5-[7-Trifluoromethyl-5-(4-trifluoromethyl-phenyl)-pyrazolo[1,5-a]pyrimidin-3-ylethynyl]-thiophene-2-sulfonic acid (pyridin-3-ylmethyl)-amide], the melting point was 177 °C.
With `Cc1cc(-c2ccc(Cl)cc2)cn2c(C#Cc3cnc(N)nc3)cnc12` [Example 221, 5-[6-(4-Chloro-phenyl)-8-methyl-imidazo[1,2-a]pyridin-3-ylethynyl]-pyrimidin-2-ylamine], the melting point was 263 °C.
The same measure for `Nc1ncc(C#Cc2cnc3c(F)cc(-c4ccc(Cl)cc4)cn23)cn1` [Example 242, 5-[6-(4-Chloro-phenyl)-8-fluoro-imidazo[1,2-a]pyridin-3-ylethynyl]-pyrimidin-2-ylamine]: 279 to 280 °C; for `Cc1cc(-c2cc(C(F)(F)F)n3ncc(C#Cc4cnc(N)nc4)c3n2)ccc1C(F)(F)F` [Example 290, 5-[5-(3-Methyl-4-trifluoromethyl-phenyl)-7-trifluoromethyl-pyrazolo[1,5-a]pyrimidin-3-ylethynyl]-pyrimidin-2-ylamine]: 240 °C.
In turn, `CCOc1cccc(-c2cc(C(F)F)n3ncc(C#Cc4ccc(S(N)(=O)=O)cc4)c3n2)c1` [Example 187, 4-[7-Difluoromethyl-5-(3-ethoxy-phenyl)-pyrazolo[1,5-a]pyrimidin-3-ylethynyl]-benzenesulfonamide] registered a melting point of 245 °C.
In turn, `CCc1cc(-c2ccc(Cl)cc2)nc2c(C#Cc3ccc(N)nc3)cnn12` [Example 304, 5-[5-(4-Chloro-phenyl)-7-ethyl-pyrazolo[1,5-a]pyrimidin-3-ylethynyl]-pyridin-2-ylamine] yielded a melting point of 205 to 206 °C.
The same measure for `Nc1ccc(C#Cc2cnn3c(C(F)(F)F)cc(-c4cccc(C(F)(F)F)c4)nc23)cn1` [Example 259, 5-[7-Trifluoromethyl-5-(3-trifluoromethyl-phenyl)-pyrazolo[1,5-a]pyrimidin-3-ylethynyl]-pyridin-2-ylamine]: 177 °C; for `COc1ccc(C#Cc2cnn3c(C4CC4)cc(-c4ccc(Cl)cc4)nc23)cc1S(=O)(=O)NC(C)(C)CO` [Example 69, 5-[5-(4-Chloro-phenyl)-7-cyclopropyl-pyrazolo[1,5-a]pyrimidin-3-ylethynyl]-N-(2-hydroxy-1,1-dimethyl-ethyl)-2-methoxy-benzenesulfonamide]: 253 to 256 °C; for `O=S(=O)(c1ccc(C#Cc2cnn3c(C(F)F)cc(-c4ccc(C(F)(F)F)cc4)nc23)s1)N(CCO)CCO` [Example 269, 5-[7-Difluoromethyl-5-(4-trifluoromethyl-phenyl)-pyrazolo[1,5-a]pyrimidin-3-ylethynyl]-thiophene-2-sulfonic acid bis-(2-hydroxy-ethyl)-amide]: 122 °C.
In the case of `NS(=O)(=O)c1ccc(C#Cc2cnc3ccc(-c4ccc(C(F)(F)F)cc4)cn23)s1` [Example 217, 5-[6-(4-Trifluoromethyl-phenyl)-imidazo[1,2-a]pyridin-3-ylethynyl]-thiophene-2-sulfonic acid amide] it was 206 to 210 °C; in that of `OCc1ccc(C#Cc2cnn3c(C(F)(F)F)cc(-c4ccc(C(F)(F)F)cc4)nc23)cc1` [Example 184, {4-[7-Trifluoromethyl-5-(4-trifluoromethyl-phenyl)-pyrazolo[1,5-a]pyrimidin-3-ylethynyl]-phenyl}-methanol], 200 to 202 °C.
The same measure for `O=S(=O)(NC(CO)CO)c1ccc(C#Cc2cnn3c(C(F)F)cc(-c4cccc(C(F)(F)F)c4)nc23)s1` [Example 265, 5-[7-Difluoromethyl-5-(3-trifluoromethyl-phenyl)-pyrazolo[1,5-a]pyrimidin-3-ylethynyl]-thiophene-2-sulfonic acid (2-hydroxy-1-hydroxymethyl-ethyl)-amide]: 153 °C.
The molecule `NS(=O)(=O)c1ccc(C#Cc2cnn3c(CO)cc(-c4ccc(Cl)cc4)nc23)cc1` [Example 155, 4-[5-(4-Chloro-phenyl)-7-hydroxymethyl-pyrazolo[1,5-a]pyrimidin-3-ylethynyl]-benzenesulfonamide] displayed a melting point of 238 to 240 °C.
For the molecule `CC(C)(CO)NS(=O)(=O)c1cncc(C#Cc2cnn3ccc(-c4ccc(Cl)cc4)nc23)c1` [Example 74, 5-[5-(4-Chloro-phenyl)-pyrazolo[1,5-a]pyrimidin-3-ylethynyl]-pyridine-3-sulfonic acid (2-hydroxy-1,1-dimethyl-ethyl)-amide], the melting point is 185 to 186 °C.
In the case of `Nc1ccc(C#Cc2cnn3c(C(F)F)cc(-c4ccc(C(F)(F)F)cc4)nc23)cn1` [Example 188, 5-[7-Difluoromethyl-5-(4-trifluoromethyl-phenyl)-pyrazolo[1,5-a]pyrimidin-3-ylethynyl]-pyridin-2-ylamine] it was 216 °C.
In the case of `NS(=O)(=O)c1cncc(C#Cc2cnn3c(C(F)(F)F)cc(-c4ccc(C(F)(F)F)cc4)nc23)c1` [Example 5, 5-[7-Trifluoromethyl-5-(4-trifluoromethyl-phenyl)-pyrazolo[1,5-a]pyrimidin-3-ylethynyl]-pyridine-3-sulfonic acid amide] it was 239 to 240 °C.
The same measure for `O=S(=O)(c1ccc(C#Cc2cnn3c(C(F)F)cc(-c4ccc(C(F)(F)F)cc4)nc23)cc1)N1CCOCC1` [Example 137, 7-Difluoromethyl-3-[4-(morpholine-4-sulfonyl)-phenylethynyl]-5-(4-trifluoromethyl-phenyl)-pyrazolo[1,5-a]pyrimidine]: 227 to 228 °C.
The molecule `Nc1ccc(C#Cc2cnc3ccc(-c4ccc(C(F)(F)F)cc4)cn23)cn1` [Example 237, 5-[6-(4-Trifluoromethyl-phenyl)-imidazo[1,2-a]pyridin-3-ylethynyl]-pyridin-2-ylamine] came in with a melting point of 241 to 244 °C.
Molecule `O=S(=O)(Nc1ccncc1)c1ccc(C#Cc2cnn3c(C(F)F)cc(-c4ccc(C(F)(F)F)cc4)nc23)s1` [Example 282, 5-[7-Difluoromethyl-5-(4-trifluoromethyl-phenyl)-pyrazolo[1,5-a]pyrimidin-3-ylethynyl]-thiophene-2-sulfonic acid pyridin-4-ylamide] yielded a melting point of 215 °C.
The same measure for `Cc1cc(-c2cc(C(F)(F)F)n3ncc(C#Cc4cccc(S(N)(=O)=O)c4)c3n2)ccc1Cl` [Example 112, 3-[5-(4-Chloro-3-methyl-phenyl)-7-trifluoromethyl-pyrazolo[1,5-a]pyrimidin-3-ylethynyl]-benzenesulfonamide]: 234 °C; for `O=S(=O)(NC(CO)CO)c1ccc(C#Cc2cnn3c(C(F)F)cc(-c4ccc(C(F)(F)F)cc4)nc23)s1` [Example 270, 5-[7-Difluoromethyl-5-(4-trifluoromethyl-phenyl)-pyrazolo[1,5-a]pyrimidin-3-ylethynyl]-thiophene-2-sulfonic acid (2-hydroxy-1-hydroxymethyl-ethyl)-amide]: 152 °C.
The same measure for `NS(=O)(=O)c1cc(C#Cc2cnn3c(C(F)(F)F)cc(-c4ccc(Cl)cc4)nc23)c(F)cc1F` [Example 96, 5-[5-(4-Chloro-phenyl)-7-trifluoromethyl-pyrazolo[1,5-a]pyrimidin-3-ylethynyl]-2,4-difluoro-benzenesulfonamide]: 292 to 293 °C.
In the case of `CC(C)(CO)NS(=O)(=O)c1ccc(C#Cc2cnn3c(C(F)(F)F)cc(-c4ccc(C(F)(F)F)cc4)nc23)s1` [Example 120, 5-[7-Trifluoromethyl-5-(4-trifluoromethyl-phenyl)-pyrazolo[1,5-a]pyrimidin-3-ylethynyl]-thiophene-2-sulfonic acid (2-hydroxy-1,1-dimethyl-ethyl)-amide] it was 272 °C.
The molecule `Nc1ccc(C#Cc2cnc3c(C(F)(F)F)cc(-c4ccc(C(F)(F)F)cc4)cn23)cn1` [Example 191, 5-[8-Trifluoromethyl-6-(4-trifluoromethyl-phenyl)-imidazo[1,2-a]pyridin-3-ylethynyl]-pyridin-2-ylamine] showed a melting point of 260 to 262 °C.
In the case of `CC(C)(CO)NS(=O)(=O)c1cnc(C#Cc2cnn3c(C4CC4)cc(-c4ccc(C(F)(F)F)cc4)nc23)s1` [Example 82, 2-[7-Cyclopropyl-5-(4-trifluoromethyl-phenyl)-pyrazolo[1,5-a]pyrimidin-3-ylethynyl]-thiazole-5-sulfonic acid (2-hydroxy-1,1-dimethyl-ethyl)-amide] it was 243 to 245 °C; in that of `O=S(=O)(NC(CO)CO)c1ccc(C#Cc2cnn3c(C(F)(F)F)cc(-c4cccc(C(F)(F)F)c4)nc23)s1` [Example 271, 5-[7-Trifluoromethyl-5-(3-trifluoromethyl-phenyl)-pyrazolo[1,5-a]pyrimidin-3-ylethynyl]-thiophene-2-sulfonic acid (2-hydroxy-1-hydroxymethyl-ethyl)-amide], 210 °C.
Turning to `NS(=O)(=O)c1cnc(C#Cc2cnn3c(C(F)(F)F)cc(-c4cccc(C(F)(F)F)c4)nc23)s1` [Example 105, 2-[7-Trifluoromethyl-5-(3-trifluoromethyl-phenyl)-pyrazolo[1,5-a]pyrimidin-3-ylethynyl]-thiazole-5-sulfonic acid amide], the melting point turned out to be 251 °C.

What is called melting point is the temperature, or range, at which the solid turns liquid.

The record behind these values is US8063048B2, “Acetylenyl-pyrazolo-pyrimidine derivatives” (Hoffmann-La Roche Inc., priority 2005, dated 2011).
